Measured values as given in US4929601A, “Tripeptides useful as immunostimulants as well as in the prevention of metastases” (Ellem Industria Farmaceutica, S.p.A., priority 1987, dated 1990).

Assays:
[1] = system: PHA-stimulated human T lymphocytes; assay: RNA synthesis in PHA-stimulated human T lymphocytes in vitro (3H-uridine); assay type: cell-based; conditions: for RNA synthesis, 3H-uridine c.p.m. (mean): control 3835
Protocol: Human T lymphocytes, incubated in vitro for 24 hours in presence of 0.5% phytohemagglutinin (PHA) and different concentrations of the tripeptides under examination, have been analyzed for RNA synthesis (cell activation) by means of 3H-uridine labelling.

[2] = system: PHA-stimulated human T lymphocytes; assay: DNA synthesis in PHA-stimulated human T lymphocytes in vitro (3H-thymidine); assay type: cell-based; conditions: for DNA synthesis, 3H-thymidine c.p.m. (mean): control 22642
Protocol: Human T lymphocytes, incubated in vitro for 72 hours in presence of 0.5% PHA and different concentrations of the tripeptides under examination, have been analyzed for DNA synthesis (cell proliferation) by means of 3H-thymidine labelling.

Compound: N=C(N)NCCC[C@H](N)C(=O)NCC(=O)N[C@H](CC(=O)O)C(=O)O [ARG--GLY--D--ASP, L-Arginyl-glycyl-D-Aspartic acid]
- PHA-induced human T lymphocyte activation (RNA synthesis) ([1]; 24 hours, 0.5% PHA): able to increase
- RNA synthesis Δ % ([1]; peptide 0.0001 mcg/ml): -8%
- RNA synthesis, 3H-uridine c.p.m. (mean) ([1]; peptide 0.0001 mcg/ml, 24 hours, 0.5% PHA): 3517 c.p.m.
- RNA synthesis Δ % ([1]; peptide 0.001 mcg/ml): +8%
- RNA synthesis, 3H-uridine c.p.m. (mean) ([1]; peptide 0.001 mcg/ml, 24 hours, 0.5% PHA): 4129 c.p.m.
- RNA synthesis Δ % ([1]; peptide 0.01 mcg/ml): +12%
- RNA synthesis, 3H-uridine c.p.m. (mean) ([1]; peptide 0.01 mcg/ml, 24 hours, 0.5% PHA): 4283 c.p.m.
- RNA synthesis Δ % ([1]; peptide 0.1 mcg/ml): +25%
- RNA synthesis, 3H-uridine c.p.m. (mean) ([1]; peptide 0.1 mcg/ml, 24 hours, 0.5% PHA): 4777 c.p.m.
- RNA synthesis Δ % ([1]; peptide 1 mcg/ml): +22%
- RNA synthesis, 3H-uridine c.p.m. (mean) ([1]; peptide 1 mcg/ml, 24 hours, 0.5% PHA): 4682 c.p.m.
- RNA synthesis Δ % ([1]; peptide 10 mcg/ml): +13%
- RNA synthesis, 3H-uridine c.p.m. (mean) ([1]; peptide 10 mcg/ml, 24 hours, 0.5% PHA): 4346 c.p.m.
- PHA-induced human T lymphocyte proliferation (DNA synthesis) ([2]; 72 hours, 0.5% PHA): able to increase
- DNA synthesis Δ % ([2]; peptide 0.0001 mcg/ml): -3%
- DNA synthesis, 3H-thymidine c.p.m. (mean) ([2]; peptide 0.0001 mcg/ml, 72 hours, 0.5% PHA): 21898 c.p.m.
- DNA synthesis Δ % ([2]; peptide 0.001 mcg/ml): +2%
- DNA synthesis, 3H-thymidine c.p.m. (mean) ([2]; peptide 0.001 mcg/ml, 72 hours, 0.5% PHA): 23029 c.p.m.
- DNA synthesis Δ % ([2]; peptide 0.01 mcg/ml): +8%
- DNA synthesis, 3H-thymidine c.p.m. (mean) ([2]; peptide 0.01 mcg/ml, 72 hours, 0.5% PHA): 24551 c.p.m.
- DNA synthesis Δ % ([2]; peptide 0.1 mcg/ml): +15%
- DNA synthesis, 3H-thymidine c.p.m. (mean) ([2]; peptide 0.1 mcg/ml, 72 hours, 0.5% PHA): 26090 c.p.m.
- DNA synthesis Δ % ([2]; peptide 1 mcg/ml): +16%
- DNA synthesis, 3H-thymidine c.p.m. (mean) ([2]; peptide 1 mcg/ml, 72 hours, 0.5% PHA): 26170 c.p.m.
- DNA synthesis Δ % ([2]; peptide 10 mcg/ml): +9%
- DNA synthesis, 3H-thymidine c.p.m. (mean) ([2]; peptide 10 mcg/ml, 72 hours, 0.5% PHA): 24570 c.p.m.
